Where “and” joins values, the source holds several entries; their conditions need not be identical. Identical values can stand only once.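 Test compounds were applied to cells in 96-well plates for 48 hours at 5 doses. GI50 marks 50% less growth. TGI denotes the concentration required for complete inhibition of growth.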

Consider 13 compounds from PubChem BioAssay (NCI).

Common to all, as to assay: inhibition of tumour cell growth, NCI panel, 48 h
Experiment [1] has as its system UACC-257 melanoma.
In experiment [2] the test system is OVCAR-5 ovarian.
For experiment [3], the system named is NCI-H23 lung.
Experiment [4] relates to CAKI-1 renal.
Experiment [5] concerns RPMI-8226 leukemia.
The subject of experiment [6] is MDA-MB-231 breast.
In experiment [7] the test system is SW-620 colon.
In experiment [8] the test system is ACHN renal.
In experiment [9] the test system is PC-3 prostate.
Experiment [10] relates to EKVX NSCLC.

For `O=[N+]([O-])c1cc(C(F)(F)F)cc2n[se]nc12`, the TGI in [1] worked out at 4.56 µM; in experiment [2] it was 26.4 µM; in experiment [3] it was 9.58 µM; in experiment [4] it was 9 µM; in experiment [5] it was 2.89 µM; in experiment [6] it was 5.84 µM. The TGI stood at 3.11 µM in experiment [7], 5.89 µM in experiment [8], 8.32 µM in [9] and 14.1 µM in [10].

Turning to `O=c1oc2ccc(I)cc2c(=O)n1-c1ccc(I)cc1F`, the GI50 in [1] is 0.522 µM; in [2], 3.93 µM; in experiment [3], 0.476 µM; in experiment [4], 0.308 µM; in experiment [5] it was 0.366 µM; in experiment [6] it was 0.579 µM. The GI50 was 0.821 µM in experiment [7], 0.616 µM in experiment [8], 2.23 µM in experiment [9] and 1.15 µM in [10]. Besides, the TGI in experiment [1] was 5.6 µM; in experiment [2], more than 100 µM; in [3], 4.39 µM; in experiment [4], 2.53 µM; in experiment [5], 1.99 µM; in experiment [6], 6.14 µM. Further, the TGI in experiment [7] turned out to be 13.1 µM; in [8], 11.7 µM; in experiment [9], 7.35 µM; in experiment [10], 8.21 µM.

`CN(C)C[C@@H]1CCn2cc(c3ccccc32)C2=C(C(=O)NC2=O)c2cn(c3ccccc23)CCO1`: the GI50 was 2.08 µM in [1]; 1.34 µM in [2]; 2.95 µM in experiment [3]; 1.36 µM in [4]; 1.13 µM in experiment [5]; 1.68 µM in experiment [6]. For the same compound, the GI50 in [7] was 0.467 µM; in [8], 2.04 µM; in [9], 1.77 µM; in [10] it was 3.92 µM. Moreover, the TGI is more than 10 µM in [1]; more than 10 µM in experiment [2]; more than 10 µM in experiment [3]; more than 10 µM in experiment [4]; 4.02 µM in experiment [5]; 9.49 µM in experiment [6]. The TGI in experiment [7] is 4.28 µM; in experiment [8], more than 10 µM; in experiment [9], more than 10 µM; in experiment [10], more than 10 µM.

For `O=C(CS(=O)c1nc2ccccc2nc1-c1ccccc1)Nc1ccc(Cl)cc1` (configuration not stated), the GI50 in experiment [1] is 24.7 µM; in [2], 33.7 µM; in experiment [3], 30.7 µM; in experiment [4], 20.1 µM; in experiment [5] it was 20.6 µM; in [6], 18.5 µM. The GI50 in [7] is 26.7 µM; in experiment [8] it was 21.4 µM; in experiment [9], 26.1 µM; in experiment [10] it was 29.5 µM. Also, the TGI in experiment [1] is 77.3 µM; in experiment [2], more than 100 µM; in experiment [3] it was more than 100 µM; in experiment [4], 57.5 µM; in experiment [5] it was 58.8 µM; in experiment [6] it was 49.1 µM. Besides, the TGI in [7] was 88.2 µM; in experiment [8] it was 51.1 µM; in experiment [9], more than 100 µM; in experiment [10], more than 100 µM.

In the case of `O=C(O)CC(S)C(=O)O.[Li+].[Sb]` (configuration not stated), the GI50 is more than 100 µM in experiment [1]; more than 100 µM in experiment [2]; more than 100 µM in experiment [3]; more than 100 µM in experiment [4]; 63.3 µM in experiment [5]; more than 100 µM in experiment [6]. Moreover, the GI50 in [7], in experiment [8], in [9] and in [10] was more than 100 µM throughout. Also, the TGI in [1], in experiment [2], in experiment [3], in [4], in [5] and in experiment [6] was more than 100 µM each time. In addition, the TGI in [7], in experiment [8], in experiment [9] and in [10] was more than 100 µM each time.

On to `CCc1nc(N)nc(N)c1-c1ccc(N(C)Cc2ccccc2)c([N+](=O)[O-])c1`, for which the TGI in [1] is 14.2 µM; in [2], 32.9 µM; in [3], 24.4 µM; in [4] it was 25.4 µM; in experiment [5], 4.13 µM; in experiment [6] it was 36.1 µM. Moreover, the TGI in experiment [7] amounted to 26.5 µM; in experiment [8] it was 36.1 µM; in experiment [9], 16.6 µM; in [10] it was 35 µM.

Turning to `CN(CCCCCCCCNc1ccnc2ccccc12)Cc1ccc(-c2ccc(-c3ccc(C#N)cc3)s2)cc1`, the GI50 in [1] is 0.482 µM; in experiment [2], 1.39 µM; in experiment [3], 0.84 µM; in experiment [4], 1.3 µM; in experiment [5], 0.164 µM; in experiment [6] it was 1.46 µM. For the same compound, the GI50 is 0.178 µM in experiment [7], 1.28 µM in [8], 0.766 µM in experiment [9] and 0.827 µM in experiment [10]. Also, the TGI in experiment [1] was 1.6 µM; in experiment [2] it was 2.73 µM; in [3], 2.42 µM; in experiment [4] it was 2.65 µM; in experiment [5], 0.571 µM; in [6] it was 3.06 µM. Besides, the TGI in experiment [7] came to 0.432 µM; in experiment [8], 2.55 µM; in experiment [9], 2.3 µM; in experiment [10] it was 2.28 µM.

Turning to `Cc1c(C(=O)/C=C/c2ccc(Cl)cc2)nnn1-c1ccnc2c(C(F)(F)F)cccc12`, the GI50 was 30.2 µM in [1]; more than 100 µM in [2]; 35.8 µM in experiment [3]; 53.7 µM in experiment [4]; 8.47 µM in [5]; 17.2 µM in experiment [6]. Also, the GI50 in [7] is more than 100 µM; in experiment [8], 51.6 µM; in experiment [9], 26.1 µM; in [10], 76.5 µM. Besides, the TGI in experiment [1] was more than 100 µM; in [2], more than 100 µM; in experiment [3], more than 100 µM; in [4], more than 100 µM; in [5], more than 100 µM; in experiment [6], 72.7 µM. The TGI in [7], in experiment [8], in [9] and in experiment [10] was more than 100 µM throughout.

For the compound `COc1ccc2[nH]cc(C3(c4c[nH]c5ccc(OC)cc45)C(=O)Nc4ccc(Cl)cc43)c2c1`, the GI50 was 2.84 µM in experiment [1]; 4.08 µM in [2]; 3.03 µM in [3]; 2.25 µM in experiment [4]; 6.51 µM in experiment [5]; 2.08 µM in experiment [6]. Moreover, the GI50 in [7] is 3.89 µM; in [8], 3.71 µM; in experiment [9], 3.96 µM; in experiment [10] it was 2.16 µM. The TGI was more than 100 µM in experiment [1]; 43.1 µM in experiment [2]; 23.2 µM in experiment [3]; more than 100 µM in experiment [4]; more than 100 µM in experiment [5]; 5.43 µM in [6]. For the same compound, the TGI in experiment [7] is 49.4 µM; in experiment [8], 21.9 µM; in experiment [9], 38.4 µM; in experiment [10], 11.9 µM.

With `CC(C)c1ccc(C(c2c(O)c3ccccc3oc2=O)c2c(O)c3ccccc3oc2=O)cc1`, the TGI in [1] was determined as 53 µM; in experiment [2], 37.4 µM; in experiment [3] it was 51.6 µM; in [4], 46.5 µM; in experiment [5], 45.9 µM; in experiment [6] it was 45.6 µM. The TGI in [7] amounted to 34.2 µM; in [8], 86.7 µM; in experiment [9], 37.9 µM; in experiment [10] it was 55.2 µM.

`CN(CO)c1nc(N(C)CO)nc(N(C)CO)n1`: the GI50 was 20.6 µM and 21.8 µM in experiment [1]; 25.4 µM in [3]; 26.9 µM in [4]; 27.5 µM in experiment [5]; 18.3 µM in experiment [6]; 11.5 µM in experiment [7]. Further, the GI50 in experiment [10] was 41.8 µM. Also, the TGI in experiment [1] was 40.7 µM and 44.4 µM; in experiment [2] it was 63 µM and > 73.8 µM; in experiment [3], 59.8 µM and 91.7 µM; in [4], 77.4 µM and 65.7 µM; in [5] it was > 91.4 µM and 43.4 µM; in [6], 42.9 µM and 46.9 µM. Further, the TGI is 43.6 µM and 70.6 µM in [7]; 79.2 µM and 75.6 µM in [8]; 45.6 µM and 51.3 µM in [9]; > 81.5 µM and 77.7 µM in experiment [10].

Consider `CCN(CC)CCOc1ccc(NC(=O)C(C(C)C)N2C(=O)/C(=C/c3ccc(Br)cc3)SC2=S)cc1` (configuration not stated), for which the GI50 in [1] is 2.2 µM; in experiment [2] it was 2.89 µM; in experiment [3], 3.74 µM; in [4], 4.38 µM; in [5], 2.35 µM; in experiment [6], 1.85 µM. The GI50 in [7] was 1.97 µM; in experiment [8], 1.78 µM; in experiment [9], 3.17 µM; in experiment [10], 5.24 µM. Moreover, the TGI in [1] was determined as 5.14 µM; in experiment [2] it was 10.4 µM; in experiment [3], 13.9 µM; in experiment [4] it was 17.1 µM; in [5], 5.73 µM; in experiment [6], 3.67 µM. Also, the TGI in [7] was found to be 4.02 µM; in experiment [8] it was 3.25 µM; in experiment [9], 12.1 µM; in experiment [10], 18.8 µM.

On to `C=C1C(=O)O[C@H]2[C@H]1CC/C(CNC(=O)C(C)c1ccc(CC(C)C)cc1)=C\CC[C@@]1(C)O[C@@H]21` (some centres not stated), for which the GI50 in [1] was 1.56 µM; in [2] it was 1.92 µM; in experiment [3], 1.67 µM; in experiment [4] it was 1.69 µM; in experiment [5], 2.29 µM; in experiment [6], 1.96 µM. Further, the GI50 was 1.69 µM in experiment [7], 1.45 µM in [8], 1.77 µM in experiment [9] and 1.67 µM in experiment [10]. Besides, the TGI was 3.12 µM in experiment [1]; 4.04 µM in experiment [2]; 3.32 µM in experiment [3]; 3.06 µM in experiment [4]; 6.92 µM in [5]; 4 µM in experiment [6]. In addition, the TGI in [7] came to 3.55 µM; in experiment [8], 2.76 µM; in experiment [9] it was 3.82 µM; in [10], 3.22 µM.
